The test system of this assay is Cell Necrosis. As to the kind of experiment: Cell necrosis assay / cell viability assay (necrosis inhibitor activity). The class given is cell-based.
[1] abbreviates: necrosis inhibitor activity, compounds outside 14-191, read-out: EC50.
Setting [2] is: necrosis inhibitor activity, EC data for 14-191 extrapolated, read-out: EC50.

Consider 28 molecules from patent US12662469B2 (SIRONAX LTD, priority 2018, dated 2026).

Molecules are shown by their SMILES. Where two headings read alike, the source gives them in different places.

For the molecule `N#Cc1cccc(C2CC=NN2C(=O)N2CC(Oc3cc4[nH]nc(F)c4cc3F)C2)c1` (stereo not shown) [Compound 380, 3-(1-(3-((3,5-difluoro-1H-indazol-6-yl)oxy)azetidine-1-carbonyl)-4,5-dihydro-1H-pyrazol-5-yl)benzonitrile], the half-maximal effective concentration (EC50) (usually the concentration needed to bring the measured effect to its halfway point) under setting [1] is 1 to 1000 nM.
For `O=C(N1CC(Oc2ccc(F)nc2)C1)N1N=CCC1c1ccccc1` (stereo not shown) [Compound 73, (3-((6-fluoropyridin-3-yl)oxy)azetidin-1-yl)(5-phenyl-4,5-dihydro-1H-pyrazol-1-yl)methanone], the 50% effective concentration (EC50) under setting [2] was 1 to 1000 nM.
Consider `O=C1NCc2cc(OC3CN(C(=O)N4N=CCC4c4cc(F)cc(F)c4)C3)ccc21` (stereo not shown) [Compound 180], for which the 50% effective concentration (EC50) under setting [2] was 1 to 1000 nM.
On to `O=C(NC1CCN(c2ccc(F)cn2)C1)N1N=CCC1c1ccccc1` (stereo not shown) [Compound 23, N-(1-(5-fluoropyridin-2-yl)pyrrolidin-3-yl)-5-phenyl-4,5-dihydro-1H-pyrazole-1-carboxamide], for which, under setting [2], the EC50 was 1 to 1000 nM.
As to `COC(=O)c1cc2sc(OC3CN(C(=O)N4N=CC[C@H]4c4cc(F)cc(F)c4)C3)nc2[nH]1` [Compound 257, methyl (S)-2-((1-(5-(3,5-difluorophenyl)-4,5-dihydro-1H-pyrazole-1-carbonyl)azetidin-3-yl)oxy)-4H-pyrrolo[2,3-d]thiazole-5-carboxylate], the EC50 under setting [1] fell in the range of 1 to 1000 nM.
Take `CC(C)CC(=O)Nc1nc(N2CCN(C(=O)N3N=CC[C@H]3c3cc(F)cc(F)c3)CC2)ncc1F` [Compound 291, (S)—N-(2-(4-(5-(3,5-difluorophenyl)-4,5-dihydro-1H-pyrazole-1-carbonyl)piperazin-1-yl)-5-fluoropyrimidin-4-yl)-3-methylbutanamide]: the EC50 under setting [1] is 1 to 1000 nM.
On to `O=C(N1CC(Oc2cc(F)ccc2F)C1)N1N=CCC1c1ccccc1` (stereo not shown) [Compound 128, (3-(2,5-difluorophenoxy)azetidin-1-yl)(5-phenyl-4,5-dihydro-1H-pyrazol-1-yl)methanone], for which, under setting [2], the concentration giving a half-maximal response (EC50) was 1 to 1000 nM.
`O=C(N1CC(Oc2scc3c(=O)[nH]cnc23)C1)N1N=CCC1c1cc(F)cc(F)c1` (stereo not shown) [Compound 169]: under setting [2], the concentration for a half-maximal effect (EC50) was 1 to 1000 nM.
Take `O=C(c1ccccc1)N1CCN(C(=O)N2N=CCC2c2ccccc2)CC1` (stereo not shown) [Compound 95, (4-benzoylpiperazin-1-yl)(5-phenyl-4,5-dihydro-1H-pyrazol-1-yl)methanone]: under setting [2], the EC50 was 1000 to 10000 nM.
For the molecule `C[C@@H]1CN(c2ncc(F)cn2)C[C@H](C)N1C(=O)N1N=CCC1c1ccccc1` (stereo partly drawn) [Compound 28, ((2R,6S)-4-(5-fluoropyrimidin-2-yl)-2,6-dimethylpiperazin-1-yl)(5-phenyl-4,5-dihydro-1H-pyrazol-1-yl)methanone], the EC50 under setting [2] is 1 to 1000 nM.
With `O=C(N1CC(Oc2ccc3ccc(=O)[nH]c3c2)C1)N1N=CC[C@H]1c1cc(F)cc(F)c1` [Compound 205, (S)-7-((1-(5-(3,5-difluorophenyl)-4,5-dihydro-1H-pyrazole-1-carbonyl)azetidin-3-yl)oxy)quinolin-2(1H)-one], the 50% effective concentration (EC50) under setting [1] was in the range of 1 to 1000 nM.
As to `O=C(N1CC[C@@H](Oc2cccc(NCCN3CCOCC3)n2)C1)N1N=CC[C@H]1c1cc(F)cc(F)c1` [Compound 358], under setting [1], the half-maximal effective concentration (EC50) was 1 to 1000 nM.
With `N#Cc1cccc(O[C@@H]2CCN(C(=O)N3N=CC[C@H]3c3cc(F)cc(F)c3)C2)n1` [Compound 337, 6-(((R)-1-((S)-5-(3,5-difluorophenyl)-4,5-dihydro-1H-pyrazole-1-carbonyl)pyrrolidin-3-yl)oxy)picolinonitrile], the 50% effective concentration (EC50) under setting [1] was 1 to 1000 nM.
Consider `O=C1Cc2ccc(OC3CN(C(=O)N4N=CCC4c4cc(F)cc(F)c4)C3)cc2N1` (stereo not shown) [Compound 224, 6-((1-(5-(3,5-difluorophenyl)-4,5-dihydro-1H-pyrazole-1-carbonyl)azetidin-3-yl)oxy)indolin-2-one], for which, under setting [1], the concentration giving a half-maximal response (EC50) lay within 1 to 1000 nM.
For the molecule `O=C(N1CC(=Cc2cc(F)ncc2F)C1)N1N=CC[C@H]1c1cc(F)cc(F)c1` [Compound 329], under setting [1], the EC50 lay within 1 to 1000 nM.
In the case of `O=C(NC1CCN(c2ncccn2)C1)N1N=CCC1c1ccccc1` (stereo not shown) [Compound 22], the EC50 under setting [2] was 1000 to 10000 nM.
Take `O=C(N1CC(Oc2ccc(O)cc2)C1)N1N=CCC1c1ccccc1` (stereo not shown) [Compound 70, (3-(4-hydroxyphenoxy)azetidin-1-yl)(5-phenyl-4,5-dihydro-1H-pyrazol-1-yl)methanone]: the 50% effective concentration (EC50) under setting [2] is 1000 to 10000 nM.
`O=C(N1CC(Oc2ccc3ccccc3c2)C1)N1N=CC[C@H]1c1cc(F)cc(F)c1` [Compound 203, (S)(5-(3,5-difluorophenyl)-4,5-dihydro-1H-pyrazol-1-yl)(3-(naphthalen-2-yloxy)azetidin-1-yl)methanone] returned a concentration giving a half-maximal response (EC50) of 1 to 1000 nM.
As for `N#Cc1nccc(OC2CN(C(=O)N3N=CC[C@H]3c3cc(F)cc(F)c3)C2)n1` [Compound 265, (S)-4-((1-(5-(3,5-difluorophenyl)-4,5-dihydro-1H-pyrazole-1-carbonyl)azetidin-3-yl)oxy)pyrimidine-2-carbonitrile], the EC50 under setting [1] was in the range of 1 to 1000 nM.
As to `O=C(N1CC(=Cc2ccc(Cl)cc2F)C1)N1N=CC[C@H]1c1cc(F)cc(F)c1` [Compound 313], under setting [1], the concentration giving a half-maximal response (EC50) fell in the range of 1 to 1000 nM.
Regarding `O=C(N1CC(Oc2nc3ccccc3s2)C1)N1N=CCC1c1cc(F)cc(F)c1` (stereo not shown) [Compound 276, (3-(benzo[d]thiazol-2-yloxy)azetidin-1-yl)(5-(3,5-difluorophenyl)-4,5-dihydro-1H-pyrazol-1-yl)methanone], under setting [1], the half-maximal effective concentration (EC50) lay within 1 to 1000 nM.
Consider `O=C1CCc2ccc(C=C3CN(C(=O)N4N=CCC4c4cc(F)cc(F)c4)C3)cc2N1` (stereo not shown) [Compound 277, 7-((1-(5-(3,5-difluorophenyl)-4,5-dihydro-1H-pyrazole-1-carbonyl)azetidin-3-yildene)methyl)-3,4-dihydroquinolin-2(1H)-one], for which the concentration for a half-maximal effect (EC50) under setting [1] fell in the range of 1 to 1000 nM.
For the molecule `N#Cc1cnc(N2CCN(C(=O)N3N=CCC3c3ccccc3)CC2)s1` (stereo not shown) [Compound 108, 2-(4-(5-phenyl-4,5-dihydro-H-pyrazole-1-carbonyl)piperazin-1-yl)thiazole-5-carbonitrile], the EC50 under setting [2] was 1 to 1000 nM.
Regarding `O=C(N1CCN(c2ncc(F)cn2)CC1)N1OCC[C@H]1c1ccccc1` [Compound 81, (S)-(4-(5-fluoropyrimidin-2-yl)piperazin-1-yl)(3-phenylisoxazolidin-2-yl)methanone], under setting [2], the half-maximal effective concentration (EC50) is 1 to 1000 nM.
For the molecule `CCOC(=O)c1nc(OC2CN(C(=O)N3N=CC[C@H]3c3cc(F)cc(F)c3)C2)sc1Cl` [Compound 272, ethyl (S)-5-chloro-2-((1-(5-(3,5-difluorophenyl)-4,5-dihydro-1H-pyrazole-1-carbonyl)azetidin-3-yl)oxy)thiazol-4-carboxylate], the EC50 under setting [1] was in the range of 1 to 1000 nM.
The same measure, in the same setting: as for `CNc1ncc(F)c(OC2CN(C(=O)N3N=CC[C@H]3c3cc(F)cc(F)c3)C2)n1` [Compound 268, (S)-(5-(3,5-difluorophenyl)-4,5-dihydro-1H-pyrazol-1-yl)(3-((5-fluoro-2-(methylamino)pyrimidin-4-yl)oxy)azetidin-1-yl)methanone], the figure is 1 to 1000 nM.
For `O=C(N1CC(Oc2ccc(F)cc2F)C1)N1N=CCC1c1ccccc1` (stereo not shown) [Compound 63, (3-(2,4-difluorophenoxy)azetidin-1-yl)(5-phenyl-4,5-dihydro-1H-pyrazol-1-yl)methanone], the EC50 under setting [2] was 1 to 1000 nM.
On to `O=C(N1CCN(c2ncc(F)cn2)CC1)N1N=CCC1c1ccccc1` (stereo not shown) [Compound 83, (4-(5-fluoropyrimidin-2-yl)piperazin-1-yl)(5-phenyl-4,5-dihydro-1H-pyrazol-1-yl)methanone], for which the EC50 under setting [2] was 1 to 1000 nM.
